One assay deals with T1, FPR1 haplotype CH1 (Homo sapiens, UniProt P21462, E346A/I11T/V101L).
T1 construct: Vectors including FPR1 ORFs were transfected into CHO-Gα16 cells; expressed in transfected cells
T1 sequence (P21462 1-350 I11T/V101L/E346A): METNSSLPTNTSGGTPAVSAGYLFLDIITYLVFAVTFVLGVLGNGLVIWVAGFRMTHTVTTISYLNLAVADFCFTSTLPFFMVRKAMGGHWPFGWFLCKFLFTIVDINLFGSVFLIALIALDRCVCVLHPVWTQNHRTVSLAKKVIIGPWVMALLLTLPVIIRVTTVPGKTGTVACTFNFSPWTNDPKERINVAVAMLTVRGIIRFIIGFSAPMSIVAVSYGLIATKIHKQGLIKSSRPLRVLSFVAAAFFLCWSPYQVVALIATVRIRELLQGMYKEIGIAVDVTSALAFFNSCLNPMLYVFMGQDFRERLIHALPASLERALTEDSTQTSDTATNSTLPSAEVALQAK
The assay can be described thus: FACScan saturation binding of fNLFNYK–FITC, CH1 cells. Conditions: CHO-Gα16 cells, 4°C, 1 h.

In another assay the target is T2, FPR1 haplotype CH2 (Homo sapiens, UniProt P21462, E346A/I11T).
T2 construct: Vectors including FPR1 ORFs were transfected into CHO-Gα16 cells; expressed in transfected cells
T2 sequence (P21462 1-350 I11T/E346A): T1 sequence (P21462 1-350 I11T/V101L/E346A) with L101V
Put plainly: FACScan saturation binding of fNLFNYK–FITC, CH2 cells. Conditions: CHO-Gα16 cells, 4°C, 1 h.

A further assay addresses T3, FPR1 haplotype CH3 (Homo sapiens, UniProt P21462, E346A/I11T/N192K).
T3 construct: Vectors including FPR1 ORFs were transfected into CHO-Gα16 cells; expressed in transfected cells
T3 sequence (P21462 1-350 I11T/N192K/E346A): T1 sequence (P21462 1-350 I11T/V101L/E346A) with L101V, N192K
The assay can be described thus: FACScan saturation binding of fNLFNYK–FITC, CH3 cells. Conditions: CHO-Gα16 cells, 4°C, 1 h.

Another assay addresses T4, FPR1 haplotype CH4 (Homo sapiens, UniProt P21462, I11T).
T4 construct: Vectors including FPR1 ORFs were transfected into CHO-Gα16 cells; expressed in transfected cells
T4 sequence (P21462 1-350 I11T): T1 sequence (P21462 1-350 I11T/V101L/E346A) with L101V, A346E
Put plainly: FACScan saturation binding of fNLFNYK–FITC, CH4 cells. Conditions: CHO-Gα16 cells, 4°C, 1 h.

Another assay has as its target T5, FPR1 haplotype CH5 (Homo sapiens, UniProt P21462, E346A/I11T/N192K/V101L).
T5 construct: Vectors including FPR1 ORFs were transfected into CHO-Gα16 cells; expressed in transfected cells
T5 sequence (P21462 1-350 I11T/V101L/N192K/E346A): T1 sequence (P21462 1-350 I11T/V101L/E346A) with N192K
The assay can be described thus: FACScan saturation binding of fNLFNYK–FITC, CH5 cells. Conditions: CHO-Gα16 cells, 4°C, 1 h.

The target of another assay is T6, FPR1 haplotype CH6 (Homo sapiens, UniProt P21462, E346A/I11T/R190W).
T6 construct: Vectors including FPR1 ORFs were transfected into CHO-Gα16 cells; expressed in transfected cells
T6 sequence (P21462 1-350 I11T/R190W/E346A): T1 sequence (P21462 1-350 I11T/V101L/E346A) with L101V, R190W
Put plainly: FACScan saturation binding of fNLFNYK–FITC, CH6 cells. Conditions: CHO-Gα16 cells, 4°C, 1 h.

The test system of another assay is FPR1 haplotype CH7. The assay can be described thus: FACScan saturation binding of fNLFNYK–FITC, CH7 cells. Further details: species or system human. Conditions: CHO-Gα16 cells, 4°C, 1 h.
In the next assay the target is T7, FPR1 haplotype CH8 (Homo sapiens, UniProt P21462, I11T/V101L).
T7 construct: Vectors including FPR1 ORFs were transfected into CHO-Gα16 cells; expressed in transfected cells
T7 sequence (P21462 1-350 I11T/V101L): T1 sequence (P21462 1-350 I11T/V101L/E346A) with A346E
The assay can be described thus: FACScan saturation binding of fNLFNYK–FITC, CH8 cells. Particulars: CHO-Gα16 cells, 4°C, 1 h.

A further assay addresses T8, FPR1 haplotype CH9 (Homo sapiens, UniProt P21462, E346A/I11T/R190W/V101L).
T8 construct: expressed in transfected cells
T8 sequence (P21462 1-350 I11T/V101L/R190W/E346A): T1 sequence (P21462 1-350 I11T/V101L/E346A) with R190W
The assay can be described thus: FACScan saturation binding of fNLFNYK–FITC, CH9 cells. Particulars: CHO-Gα16 cells, 4°C, 1 h.

A further assay relates to FPR1 haplotype CH10. The assay can be described thus: FACScan saturation binding of fNLFNYK–FITC, CH10 cells. More on the design: species or system human. Particulars: CHO-Gα16 cells, 4°C, 1 h.
The target in the next assay is T9, FPR1 haplotype CH11 (Homo sapiens, UniProt P21462).
T9 construct: expressed in transfected cells
T9 sequence (P21462 1-350): T1 sequence (P21462 1-350 I11T/V101L/E346A) with T11I, L101V, A346E
Put plainly: FACScan saturation binding of fNLFNYK–FITC, CH11 cells. Conditions: CHO-Gα16 cells, 4°C, 1 h.

A further assay concerns the target T10, FPR1 haplotype CH12 (Homo sapiens, UniProt P21462, V101L).
T10 construct: expressed in transfected cells
T10 sequence (P21462 1-350 V101L): T1 sequence (P21462 1-350 I11T/V101L/E346A) with T11I, A346E
The assay can be described thus: FACScan saturation binding of fNLFNYK–FITC, CH12 cells. Particulars: CHO-Gα16 cells, 4°C, 1 h.

For the next assay, the system named is FPR1 haplotypes. Put plainly: FACScan binding of fNLFNYK–FITC, different FPR1 haplotypes. More on the design: species or system human. Conditions: different FPR1 haplotypes CH1–CH12.
A further assay relates to CHO-Gα16-FPR1 cells. Put plainly: fMLF-induced ERK1/2 phosphorylation, CHO-Gα16-FPR1 cells. Conditions: fMLF 10 nM, 5 min, Western blot. Type of assay: cell-based, human.
Assay [1] has as its system CHO-Gα16-FPR1 haplotype-expressing cells. Put plainly: Calcium mobilization by fMLF, four cell lines. Conditions: CH1, CH2, CH3 and CH5 cells; different concentrations of fMLF. The format is cell-based, human.
Method: A calcium mobilization assay was performed as described previously with minor modifications [33]. Briefly, CHO-Gα16-FPR1 cells were plated on to 96-well plates at a density of 15000 cells in 100 μl of medium per well and incubated for 24 h. Cells were loaded with 5 μM Fluo-4/AM in HBSS (Hanks balanced saline solution) supplemented with 2.5 mM probenecid for 45 min and then washed twice with HBSS.

Substitutions are numbered along the chain they refer to. “And” between values parts separate entries of the source, which are not always exact repeats. Equal values may be shown once. Square brackets hold non-standard residues; d marks the D form. Peptide text beside a SMILES is read from it. * marks the point of attachment. FITC = O=C1OC2(c3ccc(O)cc3Oc3cc(O)ccc32)c2ccc(NC(=S)*)cc21; Nle = CCCC[C@H](N)C(=O)O; For = O=C*

Method for CHO-Gα16-FPR1 cells: Activation of the p44/p42 MAPKs (ERK1/2) was determined as described previously [12] with modest modifications. Briefly, cells were cultured in 24-well plates at 5×10^5 cells/well for 24 h and serum starved for 2 h. They were pretreated with the indicated amounts of cyclosporins for 5 min before fMLF (10 nM) stimulation in HBSS/BSA. […] Samples were transferred to microcentrifuge tubes and sonicated twice for 5 s each to disperse DNA contents. After boiling, samples were analysed by SDS/PAGE and Western blotting using anti-ERK1/2 and anti-phospho-ERK1/2 antibodies at a 1:1000 dilution. Horseradish peroxidase-conjugated anti-rabbit antibody (1:3000 dilution) was used as the secondary antibody. The resulting immunocomplex was visualized using the SuperSignal West Pico chemiluminescence kit (Pierce Biotechnology) according to the manufacturer's instructions. The relative intensities of the bands from the PVDF membrane (Millipore) were quantified using the ChemDoc MP System (Bio-Rad) and Image-Pro Plus software (MediaCybernetics).
Method for FPR1 haplotype CH10: (§1) Stable clones expressing FPR1 haplotypes were selected after 10 days of culture under the selection of 600 μg/ml G418 and identified by FACScan analysis after binding of 20 nM of the fluorescent ligand fNLFNYK–FITC to the CHO cell transfectants for 45 min at 4°C.
(§2) CHO cells were added to 3 mM KCl, 100 mM NaCl, 10 mM sodium phosphate, 1 mM Mg^2+ and 1 mM Ca^2+, pH 7.4, containing 5% fetal bovine serum and incubated at 4°C for 1 h with various concentrations of fNLFNYK–FITC. The mean fluorescence of the cells was determined after subtracting the readout of cells without fNLFNYK–FITC. The results were analysed by non-linear least squares analysis to determine Kd and Bmax values. […] Data from at least two different experiments in duplicate were analysed.
Method for FPR1 haplotype CH11: (§3) Transfection of FPR1 haplotype cDNAs into CHO-Gα16 cells was carried out with the Gene Pulser Xcell Electroporation System from Bio-Rad Laboratories. […] Vectors containing the ORFs of the human FPR1 gene (8 μg in a volume of 8 μl) were added to the cells. Following a 280 V and 20 ms pulse (squarewave), the cells were immediately returned to 10 ml of culture medium and incubated for 24 h. Stable clones expressing FPR1 haplotypes were selected after 10 days of culture under the selection of 600 μg/ml G418 and identified by FACScan analysis after binding of 20 nM of the fluorescent ligand fNLFNYK–FITC to the CHO cell transfectants for 45 min at 4°C.
as §2
Method for FPR1 haplotype CH12: as §1, §2
Method for FPR1 haplotype CH2: as §1, §2
Method for FPR1 haplotype CH3: as §1, §2
Method for FPR1 haplotype CH4: as §1, §2
Method for FPR1 haplotype CH5: as §1, §2
Method for FPR1 haplotype CH6: as §1, §2
Method for FPR1 haplotype CH7: as §1, §2
Method for FPR1 haplotype CH8: as §1, §2
Method for FPR1 haplotype CH9: as §1, §2
Method for FPR1 haplotypes: as §3, §2

As for `CCCC[C@H](NC=O)C(=O)N[C@@H](CC(C)C)C(=O)N[C@@H](Cc1ccccc1)C(=O)N[C@@H](CCCC)C(=O)N[C@@H](Cc1ccc(O)cc1)C(=O)N[C@@H](CCCCNC(=S)Nc1ccc2c(c1)C(=O)OC21c2ccc(O)cc2Oc2cc(O)ccc21)C(=O)O` [fNLFNYK–FITC, N-formyl-Nle-Leu-Phe-Nle-Tyr-Lys–FITC] (For-[Nle]LF[Nle]YK(FITC)-OH; N-terminus and C-terminus assumed), the Bmax on FPR1 haplotype CH1 is 48336±4553; on FPR1 haplotype CH2, 47657±9098; on FPR1 haplotype CH3 it was 59135±4185; at FPR1 haplotype CH4 it was 33860 and 33860±4977; on FPR1 haplotype CH5, 42575±4902; on FPR1 haplotype CH6, 34093±693. The Bmax in the assay on FPR1 haplotype CH7 (CH7, FACScan) was 60688±10388; at FPR1 haplotype CH8 it was 36362±353; on FPR1 haplotype CH9 it was 39009±6672; with FPR1 haplotype CH10 (CH10, FACScan), 41751±615; on FPR1 haplotype CH11, 37713±5841; at FPR1 haplotype CH12 it was 65059 and 65059±3570. The dissociation constant (Kd) in the assay on FPR1 haplotype CH7 (CH7 (T11/V101/R190/K192/E346), pH 7.4, FACScan, at least two experiments in duplicate) turned out to be 1.7 ± 0.3 nM; in the assay with FPR1 haplotype CH10 (CH10 (T11/L101/W190/N192/E346), pH 7.4, FACScan, at least two experiments in duplicate) it was 2.4 ± 0.3 nM. In addition, the “receptor affinity of fNLFNYK–FITC (in words)” value in the assay on FPR1 haplotypes was “varied moderately”.

As for “N-formyl-methionyl-leucyl-phenylalanine [fMLF]”, the “phosphorylation of ERK1/2 (in words)” value with CHO-Gα16-FPR1 cells is reported as “significant increase”. Moreover, in [1], the “calcium mobilization (in words)” value was “elicited calcium mobilization dose-dependently”.

Source of the values: PMC3632010, “V101L of human formyl peptide receptor 1 (FPR1) increases receptor affinity and augments the antagonism mediated by cyclosporins” (Biochemical Journal, 2013).
